System: MV-4-11 cells
Assay: Gene expression microarray analysis (Affymetrix PrimeView) and GSEA
Type: cell-based, human
Set-up: RFU PODN (11730768_x_at) / Fold change /veh PODN (11730768_x_at) / RFU LINC00158 (11744669_a_at) / Fold change /veh LINC00158 (11744669_a_at) / RFU DUSP10 (11751237_a_at) / Fold change /veh DUSP10 (11751237_a_at) / RFU ID3 (11757404_x_at) / Fold change /veh ID3 (11757404_x_at) / RFU PLEKHG5 (11737974_s_at) / Fold change /veh PLEKHG5 (11737974_s_at) / RFU LRRC4B (11730491_at) / Fold change /veh LRRC4B (11730491_at) / RFU GIMAP4 (11747438_a_at) / Fold change /veh GIMAP4 (11747438_a_at) / RFU KRT8 (11758183_x_at) / Fold change /veh KRT8 (11758183_x_at) / RFU CNN1 (11734310_a_at) / Fold change /veh CNN1 (11734310_a_at) / RFU VPS37D (11726825_at) / Fold change /veh VPS37D (11726825_at) / RFU C10orf10 (11716522_x_at) / Fold change /veh C10orf10 (11716522_x_at) / RFU KIR2DL2 /// KIR2DL4 /// KIR2DL5A /// KIR2DL5B /// KIR2DS1 /// KIR2DS2 /// KIR2DS3 /// KIR2DS4 /// KIR3DL3 /// KIR3DL3 /// KIR3DS1 (11738374_at) / Fold change /veh KIR2DL2 /// KIR2DL4 /// KIR2DL5A /// KIR2DL5B /// KIR2DS1 /// KIR2DS2 /// KIR2DS3 /// KIR2DS4 /// KIR3DL3 /// KIR3DL3 /// KIR3DS1 (11738374_at) / RFU C1QL1 (11718748_at) / Fold change /veh C1QL1 (11718748_at) / RFU TMPRSS4 (11747572_a_at) / Fold change /veh TMPRSS4 (11747572_a_at) / RFU HAMP (11756126_x_at) / Fold change /veh HAMP (11756126_x_at) / RFU RNFT2 (11725882_a_at) / Fold change /veh RNFT2 (11725882_a_at) / RFU NR4A2 (11747474_a_at) / Fold change /veh NR4A2 (11747474_a_at) / RFU ABCC12 (11746883_a_at) / Fold change /veh ABCC12 (11746883_a_at) / RFU TMEM136 (11760407_x_at) / Fold change /veh TMEM136 (11760407_x_at) / RFU CLDN22 /// WWC2 (11732394_at) / Fold change /veh CLDN22 /// WWC2 (11732394_at) / RFU HLA-DPB1 (11760878_x_at) / Fold change /veh HLA-DPB1 (11760878_x_at) / RFU SPINT1 (11716480_a_at) / Fold change /veh SPINT1 (11716480_a_at) / RFU GAP43 (11754022_s_at) / Fold change /veh GAP43 (11754022_s_at) / RFU A4GNT (11735810_at) / Fold change /veh A4GNT (11735810_at) / RFU PRB3 (11715151_x_at) / Fold change /veh PRB3 (11715151_x_at) / RFU TUBB4B (11761932_at) / Fold change /veh TUBB4B (11761932_at) / RFU CAPN14 (11732068_a_at) / Fold change /veh CAPN14 (11732068_a_at) / RFU TMCC2 (11721928_a_at) / Fold change /veh TMCC2 (11721928_a_at) / RFU IRGQ (11745062_a_at) / Fold change /veh IRGQ (11745062_a_at) / RFU FAM174B (11720279_a_at) / Fold change /veh FAM174B (11720279_a_at) / RFU TMPRSS4 (11748680_a_at) / Fold change /veh TMPRSS4 (11748680_a_at) / RFU FAM212B (11763350_a_at) / Fold change /veh FAM212B (11763350_a_at) / RFU PLEKHG5 (11743358_a_at) / Fold change /veh PLEKHG5 (11743358_a_at) / RFU ZSCAN30 (11745921_a_at) / Fold change /veh ZSCAN30 (11745921_a_at) / RFU CMKLR1 (11741424_a_at) / Fold change /veh CMKLR1 (11741424_a_at) / RFU LOC101060620 /// MAPK8IP1 (11723275_at) / Fold change /veh LOC101060620 /// MAPK8IP1 (11723275_at) / RFU SPTSSB (11747773_x_at) / Fold change /veh SPTSSB (11747773_x_at) / RFU PRSS12 (11739890_at) / Fold change /veh PRSS12 (11739890_at) / RFU BIN1 (11741810_x_at) / Fold change /veh BIN1 (11741810_x_at) / RFU WNT11 (11732464_a_at) / Fold change /veh WNT11 (11732464_a_at) / RFU C10orf10 (11716521_a_at) / Fold change /veh C10orf10 (11716521_a_at) / RFU C5orf56 (11738089_at) / Fold change /veh C5orf56 (11738089_at) / RFU CYB561 (11721691_x_at) / Fold change /veh CYB561 (11721691_x_at) / RFU ANKRD19P (11752326_a_at) / Fold change /veh ANKRD19P (11752326_a_at) / RFU OR2T12 /// OR2T33 /// OR2T8 (11738714_s_at) / Fold change /veh OR2T12 /// OR2T33 /// OR2T8 (11738714_s_at) / RFU VCAN (11748164_a_at) / Fold change /veh VCAN (11748164_a_at) / RFU JSRP1 (11732532_at) / Fold change /veh JSRP1 (11732532_at) / RFU KRTAP10-11 (11738290_x_at) / Fold change /veh KRTAP10-11 (11738290_x_at) / RFU MYO3A (11730013_a_at) / Fold change /veh MYO3A (11730013_a_at) / RFU EBF3 (11725865_a_at) / Fold change /veh EBF3 (11725865_a_at) / RFU CAMK2N1 (11719241_x_at) / Fold change /veh CAMK2N1 (11719241_x_at) / RFU C5orf56 (11738088_a_at) / Fold change /veh C5orf56 (11738088_a_at) / RFU OLFML3 (11715873_a_at) / Fold change /veh OLFML3 (11715873_a_at) / RFU LOC100653217 /// NTM (11731650_a_at) / Fold change /veh LOC100653217 /// NTM (11731650_a_at) / RFU MAPK11 (11762145_a_at) / Fold change /veh MAPK11 (11762145_a_at) / RFU FIZ1 (11724087_x_at) / Fold change /veh FIZ1 (11724087_x_at) / RFU OASL (11726364_x_at) / Fold change /veh OASL (11726364_x_at) / RFU SOX15 (11748057_x_at) / Fold change /veh SOX15 (11748057_x_at) / RFU CD79A (11719716_a_at) / Fold change /veh CD79A (11719716_a_at) / RFU HIST1H1D (11736915_at) / Fold change /veh HIST1H1D (11736915_at) / RFU CASKIN2 (11723855_a_at) / Fold change /veh CASKIN2 (11723855_a_at) / RFU LOC730098 (11760151_x_at) / Fold change /veh LOC730098 (11760151_x_at) / RFU OR4N2 (11742367_at) / Fold change /veh OR4N2 (11742367_at) / RFU PRRT2 (11749266_a_at) / Fold change /veh PRRT2 (11749266_a_at) / RFU SNX32 (11753110_a_at) / Fold change /veh SNX32 (11753110_a_at) / RFU CDHR5 (11726645_a_at) / Fold change /veh CDHR5 (11726645_a_at) / RFU RCAN1 (11760418_a_at) / Fold change /veh RCAN1 (11760418_a_at) / RFU FAM167A (11723789_a_at) / Fold change /veh FAM167A (11723789_a_at) / RFU FAM26E (11764081_at) / Fold change /veh FAM26E (11764081_at) / RFU ISYNA1 (11749810_s_at) / Fold change /veh ISYNA1 (11749810_s_at) / RFU ACY1 (11761880_at) / Fold change /veh ACY1 (11761880_at) / RFU 11764098_at / Fold change /veh 11764098_at / RFU SAMD14 (11745864_x_at) / Fold change /veh SAMD14 (11745864_x_at) / RFU NPB (11741838_a_at) / Fold change /veh NPB (11741838_a_at) / RFU TMPRSS6 (11731388_a_at) / Fold change /veh TMPRSS6 (11731388_a_at) / RFU KRTAP10-2 (11738614_at) / Fold change /veh KRTAP10-2 (11738614_at) / RFU ARHGAP8 /// PRR5-ARHGAP8 (11727945_x_at) / Fold change /veh ARHGAP8 /// PRR5-ARHGAP8 (11727945_x_at) / RFU KRTAP5-7 /// NADSYN1 (11734609_at) / Fold change /veh KRTAP5-7 /// NADSYN1 (11734609_at) / RFU RASL12 (11751679_a_at) / Fold change /veh RASL12 (11751679_a_at) / RFU CDKN2B (11736163_a_at) / Fold change /veh CDKN2B (11736163_a_at) / RFU PRF1 (11729649_at) / Fold change /veh PRF1 (11729649_at) / RFU, ZNF638 /// ZNF638-IT1 / Fold change vs veh, ZNF638 /// ZNF638-IT1 / RFU, PANK3 / Fold change vs veh, PANK3 / RFU, SH3YL1 / Fold change vs veh, SH3YL1 / RFU, ZEB2 / Fold change vs veh, ZEB2 / RFU, NRIP1 / Fold change vs veh, NRIP1 / RFU, PTTG1IP / Fold change vs veh, PTTG1IP / RFU, CAPN2 / Fold change vs veh, CAPN2 / RFU, MED14 / Fold change vs veh, MED14 / RFU, SNORA58 / Fold change vs veh, SNORA58 / RFU, C1orf63 / Fold change vs veh, C1orf63 / RFU, LRRFIP1 / Fold change vs veh, LRRFIP1 / RFU, NDUFAF7 / Fold change vs veh, NDUFAF7 / RFU, SLC12A2 / Fold change vs veh, SLC12A2 / RFU, IBTK / Fold change vs veh, IBTK / RFU, ESF1 / Fold change vs veh, ESF1 / Fold change vs veh, TMEM50B / RFU, TAOK1 / Fold change vs veh, TAOK1 / RFU, ACBD3 / Fold change vs veh, ACBD3 / RFU, TMA16 / Fold change vs veh, TMA16 / RFU, RWDD3 / Fold change vs veh, RWDD3 / RFU, BCAT1 / Fold change vs veh, BCAT1 / RFU, EDEM3 / Fold change vs veh, EDEM3 / RFU, TMEM33 / Fold change vs veh, TMEM33 / RFU, WDR75 / Fold change vs veh, WDR75 / RFU, AHCTF1 / Fold change vs veh, AHCTF1 / RFU, TFRC / Fold change vs veh, TFRC / RFU, ZDHHC17 / Fold change vs veh, ZDHHC17 / RFU, NOM1 / Fold change vs veh, NOM1 / RFU, ARL8B / Fold change vs veh, ARL8B / RFU, ZBTB11 / Fold change vs veh, ZBTB11 / RFU, TAMM41 / Fold change vs veh, TAMM41 / RFU, KIAA1704 /// LOC100996395 / Fold change vs veh, KIAA1704 /// LOC100996395 / RFU, ING1 / Fold change vs veh, ING1 / RFU, TRMT61B / Fold change vs veh, TRMT61B / RFU, FUBP3 / Fold change vs veh, FUBP3 / RFU, TP53 / Fold change vs veh, TP53 / RFU, TNKS2 / Fold change vs veh, TNKS2 / RFU, ZFP14 / Fold change vs veh, ZFP14 / RFU, ACTR2 / Fold change vs veh, ACTR2 / RFU, PPP3R1 / Fold change vs veh, PPP3R1 / RFU, PIK3R1 / Fold change vs veh, PIK3R1 / RFU, HNRNPA1 / Fold change vs veh, HNRNPA1 / RFU, RNF170 / Fold change vs veh, RNF170 / RFU, ZNF28 / Fold change vs veh, ZNF28 / RFU, RNGTT / Fold change vs veh, RNGTT / RFU, OGT / Fold change vs veh, OGT / RFU, BRD1 / Fold change vs veh, BRD1 / RFU, MARS / Fold change vs veh, MARS / RFU, ZNF655 / Fold change vs veh, ZNF655 / RFU, FAHD1 / Fold change vs veh, FAHD1 / RFU, BDP1 / Fold change vs veh, BDP1 / RFU, LRRCC1 / Fold change vs veh, LRRCC1 / RFU, ARID1A / Fold change vs veh, ARID1A / RFU, ZNF146 / Fold change vs veh, ZNF146 / RFU, ZNF330 / Fold change vs veh, ZNF330 / RFU, GPN3 / Fold change vs veh, GPN3 / RFU, C9orf123 / Fold change vs veh, C9orf123 / RFU, N4BP2L2 / Fold change vs veh, N4BP2L2 / RFU, ARFIP1 / Fold change vs veh, ARFIP1 / RFU, FAM179B / Fold change vs veh, FAM179B / RFU, BCL10 / Fold change vs veh, BCL10 / RFU, UHRF1BP1L / Fold change vs veh, UHRF1BP1L / RFU, BET1 / Fold change vs veh, BET1 / RFU, CNOT2 / Fold change vs veh, CNOT2 / RFU, ZNF268 / Fold change vs veh, ZNF268 / Fold change vs veh, ZNF507 / RFU, DGCR2 / Fold change vs veh, DGCR2 / RFU, WDSUB1 / Fold change vs veh, WDSUB1 / Fold change vs veh, HSP90B1 /// MIR3652 / RFU, ADSS / Fold change vs veh, ADSS / RFU, GK / Fold change vs veh, GK / RFU, ZNF148 / Fold change vs veh, ZNF148 / RFU, TAF9 / Fold change vs veh, TAF9 / RFU, SLC1A5 / Fold change vs veh, SLC1A5 / RFU, SLMO2 / Fold change vs veh, SLMO2 / RFU, ABCC4 / Fold change vs veh, ABCC4 / RFU, LOC101060439 /// RAP1B / Fold change vs veh, LOC101060439 /// RAP1B / RFU, RFX7 / Fold change vs veh, RFX7 / RFU, GTPBP10 / Fold change vs veh, GTPBP10 / RFU, CNEP1R1 / Fold change vs veh, CNEP1R1 / RFU, BIVM-ERCC5 /// ERCC5 / Fold change vs veh, BIVM-ERCC5 /// ERCC5 / RFU, ILF3 / Fold change vs veh, ILF3 / RFU 11762660_at / Fold change /veh 11762660_at / RFU VCAN (11757783_s_at) / Fold change /veh VCAN (11757783_s_at) / RFU DDX43 (11728927_at) / Fold change /veh DDX43 (11728927_at) / RFU KRT8 (11758188_x_at) / Fold change /veh KRT8 (11758188_x_at) / RFU NKD1 (11759106_at) / Fold change /veh NKD1 (11759106_at) / RFU SRD5A1 (11742802_a_at) / Fold change /veh SRD5A1 (11742802_a_at) / RFU TPSAB1 /// TPSB2 (11721975_s_at) / Fold change /veh TPSAB1 /// TPSB2 (11721975_s_at) / RFU GSTM3 (11746129_a_at) / Fold change /veh GSTM3 (11746129_a_at) / RFU IL23R (11737362_x_at) / Fold change /veh IL23R (11737362_x_at) / RFU TMEM51 (11727254_a_at) / Fold change /veh TMEM51 (11727254_a_at) / RFU PIWIL2 (11732686_x_at) / Fold change /veh PIWIL2 (11732686_x_at) / RFU ORM1 (11744905_x_at) / Fold change /veh ORM1 (11744905_x_at) / RFU CCDC152 (11743942_at) / Fold change /veh CCDC152 (11743942_at) / RFU ECM1 (11717891_a_at) / Fold change /veh ECM1 (11717891_a_at) / RFU IL23R (11748794_a_at) / Fold change /veh IL23R (11748794_a_at) / RFU TNFAIP8L3 (11732012_x_at) / Fold change /veh TNFAIP8L3 (11732012_x_at) / RFU MBOAT4 (11741988_at) / Fold change /veh MBOAT4 (11741988_at) / RFU 11764193_at / Fold change /veh 11764193_at / RFU TMEM53 (11763286_at) / Fold change /veh TMEM53 (11763286_at) / RFU MAGEB2 (11727129_at) / Fold change /veh MAGEB2 (11727129_at) / RFU TMEM200A (11744735_a_at) / Fold change /veh TMEM200A (11744735_a_at) / RFU CCDC152 (11751479_a_at) / Fold change /veh CCDC152 (11751479_a_at) / RFU FAM211A (11726209_a_at) / Fold change /veh FAM211A (11726209_a_at) / RFU RGS16 (11746705_a_at) / Fold change /veh RGS16 (11746705_a_at) / RFU VCAN (11755009_s_at) / Fold change /veh VCAN (11755009_s_at) / RFU RHOB (11743442_s_at) / Fold change /veh RHOB (11743442_s_at) / RFU RGS16 (11720943_a_at) / Fold change /veh RGS16 (11720943_a_at) / RFU RGS16 (11720944_at) / Fold change /veh RGS16 (11720944_at) / RFU, VPS4B / Fold change vs veh, VPS4B / RFU, CREB1 / Fold change vs veh, CREB1 / RFU, DNAJC13 / Fold change vs veh, DNAJC13 / RFU, GNAQ / Fold change vs veh, GNAQ / RFU, CDK5R1 / Fold change vs veh, CDK5R1 / RFU, ZRANB3 / Fold change vs veh, ZRANB3 / RFU, CUL4A / Fold change vs veh, CUL4A / RFU, CCNY / Fold change vs veh, CCNY / RFU, UFL1 / Fold change vs veh, UFL1 / RFU, COG3 / Fold change vs veh, COG3 / RFU, DIAPH2 / Fold change vs veh, DIAPH2 / RFU, SKA2 / Fold change vs veh, SKA2 / RFU, AFF3 / Fold change vs veh, AFF3 / RFU, LMF1 / Fold change vs veh, LMF1 / RFU, IPO11 / Fold change vs veh, IPO11 / RFU, DFFB / Fold change vs veh, DFFB / RFU, FOXP1 / Fold change vs veh, FOXP1 / RFU, CARD8 / Fold change vs veh, CARD8 / RFU, STRN3 / Fold change vs veh, STRN3 / RFU, ADK / Fold change vs veh, ADK / RFU, RASSF2 / Fold change vs veh, RASSF2 / RFU, WIPF1 / Fold change vs veh, WIPF1 / RFU, LARP1B / Fold change vs veh, LARP1B / RFU, RASA1 / Fold change vs veh, RASA1 / RFU, RB1 / Fold change vs veh, RB1 / RFU, PPFIA1 / Fold change vs veh, PPFIA1 / RFU, MAT2A / Fold change vs veh, MAT2A / RFU, CCT5 / Fold change vs veh, CCT5 / RFU, WDR92 / Fold change vs veh, WDR92 / RFU, CUX1 / Fold change vs veh, CUX1 / RFU, TTC7A / Fold change vs veh, TTC7A / RFU, TMEM135 / Fold change vs veh, TMEM135 / RFU, DEPTOR / Fold change vs veh, DEPTOR / RFU, CPM / Fold change vs veh, CPM / RFU, DNAJB6 / Fold change vs veh, DNAJB6 / RFU, CACNA2D3 / Fold change vs veh, CACNA2D3 / RFU, DTX4 / Fold change vs veh, DTX4 / RFU, TFCP2 / Fold change vs veh, TFCP2 / RFU, GMCL1 /// GMCL1P1 / Fold change vs veh, GMCL1 /// GMCL1P1 / RFU, AEBP2 / Fold change vs veh, AEBP2 / RFU, SNHG1 /// SNORD22 /// SNORD25 /// SNORD26 /// SNORD27 /// SNORD28 /// SNORD29 /// SNORD31 / Fold change vs veh, SNHG1 /// SNORD22 /// SNORD25 /// SNORD26 /// SNORD27 /// SNORD28 /// SNORD29 /// SNORD31 / Fold change (Aza/veh), C12orf56 (ProbeSet 11735607_a_at) / Fold change (ACY-1035/veh), C12orf56 (ProbeSet 11735607_a_at) / Fold change (Aza/veh), FGFR1OP (ProbeSet 11751329_s_at) / Fold change (ACY-1035/veh), FGFR1OP (ProbeSet 11751329_s_at) / Fold change (Aza/veh), VPS36 (ProbeSet 11739960_a_at) / Fold change (ACY-1035/veh), VPS36 (ProbeSet 11739960_a_at) / RFU SYPL1 (11715823_x_at) / Fold change /veh SYPL1 (11715823_x_at) / RFU IGFBP7 (11715501_s_at) / Fold change /veh IGFBP7 (11715501_s_at) / RFU REEP3 (11722064_at) / Fold change /veh REEP3 (11722064_at) / RFU IGLL1 (11728026_x_at) / Fold change /veh IGLL1 (11728026_x_at): dose or concentration left out as unconfirmed
Details: MV-4-11 cells, 48 hours

Nc1ncn([C@@H]2O[C@H](CO)[C@@H](O)[C@H]2O)c(=O)n1 [azacitidine]
Fold change /veh 11764193_at: 1.69
